Reference: patent US9670223B2, “Compounds with super-aspirin effects” (SOLVOTRIN THERAPEUTICS LTD., priority 2011, dated 2017)
Entries after “also recorded” stand apart in the source; their conditions may differ.

What was measured:
[1] = system: platelets; conditions: literature, cited from earlier work
[2] = system: GPIIb/IIIa; experiment: Flow cytometry of activated GPIIb/IIIa on platelets after collagen stimulation; format: cell-based, human; conditions: 60 μM
Experimental: (§1) In order to analyze receptor expression on the surface of individual platelets and to minimize platelet activation caused by sample preparation procedures, no stirring or vortexing steps were used. The abundance of activated GPIIb/IIIa and P-selectin on the surface of platelets in the presence and absence of inhibitors was measured by flow cytometry. Platelet samples were first activated with agonists either collagen or ADP. When platelet aggregation reached 50% maximal light transmission the reaction was terminated by 10-fold dilution with physiologic saline. Resting platelets were used as control. […] The activated GPIIb/IIIa platelet receptors were measured using PAC-1 monoclonal antibody at the same concentration as above. […] Following incubation, samples were diluted in FACS Flow fluid and analyzed within 5 min using a BD FACSArray (BD Biosciences, Oxford, UK). […] The instrument was set up to measure the size (forward scatter), granularity (side scatter) and cell fluorescence. […] Antibody binding was measured by analyzing individual platelets for fluorescence. The mean fluorescence intensity was determined after correction for cell autofluorescence. For each sample, the fluorescence was analyzed using a logarithmic scale. Fluorescence histograms were obtained for 10,000 individual events. […]

[3] = system: platelet rich plasma (PRP); experiment: ADP-induced platelet aggregation in PRP; format: cell-based, human
Experimental: (§2) PRP and WP (2.5×10^8 platelets ml^−1) were prepared from blood. Briefly 36 ml whole blood was collected into 4 ml of 3.15% sodium citrate; this was centrifuged at 250 ¥g for 20 min (with gentle acceleration and deceleration). At this point PRP, which had separated from white blood cells and red blood cells, was gently removed. When WP were required this PRP was centrifuged at 700 g for 10 min (with gentle acceleration and deceleration) in the presence of prostacyclin. The platelet-poor plasma (PPP) was removed and the platelet pellet was washed three times with Tyrode's buffer, before being re-suspended in Tyrode's buffer to a concentration of 2.5 ¥108 platelets/ml.
(§3) Platelet aggregation was measured by light aggregometry. […] Aggregation was initiated by the addition of agonists, and monitored by Aggro-Link software for at least 6 min.
(§4) To study the aggregatory potency of ADP, the concentration-response (0.3-10 μM) curves were generated. Collagen at different concentrations (2-5 μg/ml) was also used to induce platelet aggregation. Submaximal concentrations of agonists, i.e. the concentrations that gave approximately 95% of the maximal aggregation were used to study the effects of inhibitors of aggregation. Aspirin and aspirin prodrugs was incubated for various intervals prior to the addition of aggregating agents.
(§5) Eserine (in DMSO, 10 μM, giving a final concentration≦0.25% DMSO, which pilot studies had determined not to affect platelet aggregation) was preincubated with PRP or WP for 5 min in the aggregometer with stirring at 900 r.p.m. before the addition of test compounds (ST0701-05), which were incubated in PRP or WP for a further 10 min prior to the addition of an agonist (10 μM ADP or 5 μg/ml Collagen) to induce platelet aggregation.
1H-[1,2,4]Oxadiazolo[4,3-a]quinoxalin-1-one (ODQ, dissolved in 100% DMSO, used at a final concentration of 10 μM, which gave a final concentration not more than 0.25% DMSO) was preincubated with PRP or WP for 5 min in the aggregometer with stirring at 900 r.p.m. before the addition of test compounds (ST0701-05), which were incubated in PRP or WP for a further 10 min prior to the addition of an agonist (10 μM ADP or 5 μg/ml collagen) to induce platelet aggregation.
Eserine (10 μM) was incubated with PRP for 5 min in the aggregometer with stirring at 900 r.p.m. before the addition of test compound ST0702 salicylate (500 μM), which was incubated in PRP for a further 10 min prior to the addition of the agonist ADP (10 μM) to induce platelet aggregation.

[4] = system: 59M cells; experiment: Tumour cell-induced platelet aggregation (TCIPA), static conditions, 59M; format: cell-based, human; conditions: static, WP, 300 and 500 μM, 59M 1×10^3/ml; listed as ISAS
Source text: ISAS meanwhile is hydrolysed to aspirin and salicylic acid. […] The structure of platelet-tumor cell aggregates was studied using phase-contrast microscopy (Alonso-Escolano et al., 2004; Jurasz et al., 2001). […] Aliquots of each sample were then taken for phase-contrast microscopy examination using an Olympus CKX41 microscope (Olympus America Inc., […].). Photomicrographs were captured using a digital camera and MicroFire (Olympus America Inc.) software (Alonso-Escolano et al., 2004; Jurasz et al., 2001).

[5] = system: P-selectin; experiment: Flow cytometry of platelet P-selectin during TCIPA induced by 59M cells; format: cell-based, human; conditions: 300 μM
[6] = system: platelet rich plasma (PRP); experiment: Collagen-induced platelet aggregation in platelet rich plasma (light aggregometry); format: cell-based, human; conditions: 200 μM in PRP, collagen 5 μg/ml
Experimental: as §2, §3, §4, §5

[7] = system: P-selectin; experiment: Flow cytometry of P-selectin on platelets after collagen stimulation; format: cell-based, human; conditions: 60 μM
Experimental: as §1

[8] = system: washed platelets (WP); experiment: Collagen-induced platelet aggregation in washed platelets (light aggregometry); format: cell-based, human; set-up: IC50: unit of the concentration uncertain
Experimental: as §2, §3, §4
To study the involvement of plasma BuChE in the activation of ST0701, purified BuChE (3 U/ml) was incubated with WP for 5 min in the aggregometer with stirring at 900 r.p.m. before the addition of the test compounds ST0701 which was incubated with the WP for a further 10 min, prior to the addition of collagen (5 ug/ml).
as §5
Phenylmethylsulphonylfluoride (PMSF) 20, 50 and 100 μM dissolved in EtOH (<0.2% EtOH, which pilot studies had determined not to affect platelet aggregation) was preincubated in WP in the aggregometer for 5 min with stirring at 900 r.p.m. before the addition of test compound ST0702 to the WP, which was further incubated for 10 min prior to the addition of collagen (2 μg/ml) to induce platelet aggregation.

[9] = In-vitro half life of the ST0702 metabolite; format: in vitro ADME
[10] = system: washed platelet samples; experiment: Collagen-induced platelet aggregation in the TCIPA studies (washed platelets); format: cell-based, human; conditions: collagen 2 μg/ml (FIG. 16B)
[11] = system: HT1080 cells; experiment: Tumour cell-induced platelet aggregation (TCIPA), static conditions, HT1080; format: cell-based, human; conditions: 500 μM
Experimental: Three human tumor cell lines, 59M ovarian adenocarcinoma, Caco-2 colon adenocarcinoma and HT1080 fibrocarcinoma cells, were obtained from the European Cell Culture Collection. Cell lines were cultured as monolayers in 75 ml culture flasks at 37° C. in a humidified atmosphere with 5% CO2. 59M cells and HT1080 were cultured in Dulbecco's […] (DMEM) supplemented with 10% fetal bovine serum (FBS) and gentamycin (0.05 mg/ml), penicillin (0.06 mg/ml), and streptomycin (0.01 mg/ml). Caco-2 cell line was cultured in Minimum Essential Medium (MEM) supplemented with 20% FBS and the same antibiotics as above. The cells were supplied with fresh medium and subcultured three times each week.
Washed platelet suspensions (2.5×10^11 platelets 1^−1) were prepared from blood an mixed with the anticoagulant sodium citrate (0.315% final concentration).
The interactions between platelets and tumor cells were measured by light aggregometry (Alonso-Escolano et al., 2004; Jurasz et al., 2001b; Radomski et al., 1991). Briefly, washed platelet samples (2.5×10^8/ml) were placed in an eight channel PAP 8 aggregometer (BIO/DATA CORPORATION, Horsham, Pa., U.S.A.) and incubated for 10 min at 37° C., with stirring at 900 r.p.m., prior to the addition of aggregating agents. […] TCIPA was initiated by the addition of cancer cells, and monitored by Aggro-Link software for at least 30 min. For experiments using inhibitors, aggregation was initiated after 10 min preincubation with these compounds.
To study the ability of the aspirin pro-drugs to inhibit TCIPA in WP cancer cell lines such as HT1080 cells (2×10^5/ml), CaCo2 cells (1.5×10^3/ml) or 59M cells (1×10^3/ml) were used in the presence or absence of aspirin nicotinate (ST0702), ISAS, orthonitrate and metanitrate at 300 and 500 μM. Platelet aggregation was initiated in washed platelets (WP) using HT1080 cells (2×10^5/ml), CaCo2 cells (1.5×10^3/ml) or 59M cells (1×10^3/ml). In addition, regular aspirin (300 and 500 uM) was used as control. Results were expressed in percent changes in maximal light transmission, with 100% representing light transmission of platelet medium alone. ST0702 is hydrolyzed by plasma esterases along two pathways liberating both aspirin and 5-nicotinate salicylate (ST0702 salicylate)(metabolite). The latter is further processed to isosorbide-5-nicotinate and eventually to nicotinic acid. The orthonitrate and metanitrate compounds liberate aspirin and nitric oxide (NO). ISAS meanwhile is hydrolysed to aspirin and salicylic acid. Aspirin (300 and 500 μM) was used in control experiments. Results were expressed in percent changes in maximal light transmission, with 100% representing light transmission of platelet medium alone. Further experiments were performed with ST0702 salicylate (500 μM).

[12] = system: 59M cells; experiment: Flow-mediated TCIPA using an ultrasound standing wave trap; format: cell-based, human; conditions: 500 μM, 59M cell cluster
Source text: The ultrasound trap had three essential features: a transducer (Ferroperm, Kvistgard, Denmark) in a housing of radial symmetry, an aqueous phase and a reflector that provided optical access from above. The trap was driven with a function generator (Hewlett Packard 33120A, UK). Microscopic observation occurred with a fast, high-resolution XM10 camera (Soft Imaging System, SIS, GmbH) mounted on an Olympus BX51M reflection epi-fluorescence microscope. Images were captured by a standard PC equipped with the Cell-D image acquisition software (Soft Imaging System, SIS, GmbH).
The experimental procedure was as follows: 59M cells were introduced into the trap, the acoustic field (2.13 MHz, 0.85 MPa) was initiated and cell clusters were allowed to form. Clusters remained levitated in suspension for 10 min. Washed platelets (2.5×10^8/ml) were introduced into the trap at a flow rate of 3 μl/min. Perfusion of washed platelets around the cluster proceeded following initial adhesion of platelets to the periphery of the cluster.
To study the effect of aspirin and aspirin prodrugs in TCIPA, washed platelets were pre-incubated for 10 min at room temperature with the inhibitors: aspirin, nicotinate, ISAS, ISMNA, ortho and meta (all at a concentration of 500 μM), prior to their introduction into the ultrasound trap. […] The cell cluster-platelet aggregate remained under microscopic observation for further 10 min (the upper time limit established in the current study) under continuous flow conditions. Further experiments were performed with ST0702 salicylate (500 μM).

[13] = system: TCIPA; conditions: at up to 3 mM

SMILES: CC(=O)Oc1ccccc1C(=O)Oc1cccc(CO[N+](=O)[O-])c1 [NCX-4016]
- inhibition of platelet aggregation in WP ([1]; NO and cGMP independent): inhibits platelet aggregation
- inhibition of platelet aggregation in PRP [1]: does not inhibit platelet aggregation

SMILES: CC(=O)Oc1ccccc1C(=O)OC1COC2C(OC(=O)c3ccccc3O)COC12 (stereo not shown) [ST0701, isosorbide-2-aspirinate-5-salicylate]
- activation of GPIIb/IIIa in PRP [2]: significantly suppressed
- inhibition of ADP (10 μM) induced aggregation in PRP, comparison in words ([3]; ADP 10 μM, PRP): more efficacious than aspirin
- effect of ODQ pretreatment on inhibition of ADP induced aggregation ([3]; ODQ 10 μM, compounds 100 μM, ADP 10 μM, PRP): increased the inhibition
- inhibition of TCIPA induced by 59M [4]: able to inhibit; also recorded: inhibited
- 59M-mediated increase in platelet surface P-selectin [5]: failed to prevent
- inhibition of aggregation at 2 min preincubation [6]: 40%
- preincubation time at which inhibition is maximal [6]: 5 min
- translocation of P-selectin in PRP ([7]; PRP): significantly suppressed
- translocation of P-selectin in WP ([7]; WP): not in WP
- inhibitory actions in WP after addition of human BuChE purified from plasma ([8]; BuChE 3 U/ml, collagen 5 μg/ml): rescued
- inhibition of collagen induced aggregation in WP ([8]; at 500 μM, collagen 5 μg/ml): 50%
- IC50 ([8]; inhibition of platelet aggregation in response to collagen (5 (unit uncertain)), washed platelets): 200 µM

SMILES: O=C(O[C@@H]1CO[C@H]2[C@@H]1OC[C@@H]2OC(=O)c1ccccc1O)c1cccnc1 [ST0702 salicylate, isosorbide-2-salicylate-5-nicotinate]
- inhibition of ADP-induced aggregation in PRP ([3]; 500 μM, ADP 10 μM): inhibited ADP-induced aggregation
- inhibition of ADP-induced aggregation in PRP in the presence of eserine ([3]; 500 μM, eserine 10 μM): became significant
- half life in-vitro [9]: very short
- inhibition of collagen-induced platelet aggregation [10]: did not inhibit collagen-induced platelet aggregation
- inhibition of TCIPA in response to HT1080, no flow [11]: inhibit TCIPA
- inhibition of TCIPA under flow conditions (platelet-tumour cell disruption) [12]: did not inhibit TCIPA under flow conditions

SMILES: O=C(OC1COC2C(O)COC12)c1cccnc1 (stereo not shown) [isosorbide-5-nicotinate]
- inhibition of TCIPA [13]: did not inhibit TCIPA

SMILES: O=C(O)c1cccnc1 [nicotinic acid, reference compound]
- inhibition of TCIPA [13]: did not inhibit TCIPA
